Drawing on article PMC3170524 (Physiological research / Academia Scientiarum Bohemoslovaca, 2010), this text covers EC50 for 1 compound.

Numbering of substitutions follows the chain as printed.

Common to all, as to experiment: whole-cell patch clamp, peak current dose-response
Common to all, as to type: cell-based
On the technique in general: Patch clamp records ionic current or voltage across a cell membrane.

Experiment [1] has as its target T1, rat P2X4R (Rattus norvegicus, UniProt P51577, C159T).
T1 sequence (P51577 1-388 C159T): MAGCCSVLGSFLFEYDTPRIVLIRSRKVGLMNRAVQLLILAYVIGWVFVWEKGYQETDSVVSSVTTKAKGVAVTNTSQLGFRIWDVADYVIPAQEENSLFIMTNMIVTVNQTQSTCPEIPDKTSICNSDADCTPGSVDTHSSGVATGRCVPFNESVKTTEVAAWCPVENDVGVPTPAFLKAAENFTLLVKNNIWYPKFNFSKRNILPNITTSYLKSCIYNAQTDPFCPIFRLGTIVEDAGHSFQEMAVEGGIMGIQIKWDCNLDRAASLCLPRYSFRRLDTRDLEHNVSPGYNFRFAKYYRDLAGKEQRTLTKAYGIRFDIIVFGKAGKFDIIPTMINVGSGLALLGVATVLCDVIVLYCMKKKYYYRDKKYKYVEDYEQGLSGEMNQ

For experiment [2], the target named is T2, rat P2X4R (Rattus norvegicus, UniProt P51577, C126A).
T2 sequence (P51577 1-388 C126A): T1 sequence (P51577 1-388 C159T) with C126A, T159C

Experiment [3] concerns the target T3, rat P2X4R (Rattus norvegicus, UniProt P51577, C116A).
T3 sequence (P51577 1-388 C116A): T1 sequence (P51577 1-388 C159T) with C116A, T159C

Experiment [4] concerns the target T4, rat P2X4R (Rattus norvegicus, UniProt P51577, C116T).
T4 sequence (P51577 1-388 C116T): T1 sequence (P51577 1-388 C159T) with C116T, T159C

Experiment [5] concerns the target T5, rat P2X4R (Rattus norvegicus, UniProt P51577, C116T/C165T).
T5 sequence (P51577 1-388 C116T/C165T): T1 sequence (P51577 1-388 C159T) with C116T, T159C, C165T

The target in experiment [6] is T6, rat P2X4R (Rattus norvegicus, UniProt P51577, C270T).
T6 sequence (P51577 1-388 C270T): T1 sequence (P51577 1-388 C159T) with T159C, C270T

In experiment [7] the target is T7, rat P2X4R (Rattus norvegicus, UniProt P51577, C217R).
T7 sequence (P51577 1-388 C217R): T1 sequence (P51577 1-388 C159T) with T159C, C217R

Broadly, the EC50 is the concentration that produces a half-maximal response. Low readings indicate greater potency, high ones weaker potency.

Take `Nc1ncnc2c1ncn2[C@@H]1O[C@H](COP(=O)(O)OP(=O)(O)OP(=O)(O)O)[C@@H](O)[C@H]1O` [ATP]: the EC50 in experiment [1] is 12 ± 4.1 µM; in experiment [2], 24 ± 5.6 µM; in experiment [3], 27 ± 6.5 µM; in experiment [4], 21 ± 4.1 µM; in experiment [5] it was 57 ± 19 µM; in experiment [6] it was 3.4 ± 1.8 µM. In addition, the half-maximal effective concentration (EC50) in experiment [7] came out at 9.2 ± 2.3 µM.
